Data from US20260355318A1, “MOLECULAR MACHINES FOR TREATMENT OF CANCER, FUNGAL INFECTIONS, OR BACTERIAL INFECTIONS” (priority 2022, published 2026).

How the values were obtained:
[1] = tested on: C. albicans; assay: MIC, visible-light-activated MMs and conventional antifungals, C. albicans; assay type: cell-based, Candida albicans (ATCC 18804)
Experimental: C. albicans cell suspensions were incubated with increasing concentrations of MMs and irradiated with 405-nm light at 292 mW cm^−2 for 5 min (87.6 J cm^−2). The minimum inhibitory concentration (MIC) was defined as the MM concentration resulting in no visible fungal growth after irradiation with 87.6 J cm^−2 of 405-nm light.
(§1) Cell suspensions for susceptibility testing (MMs and conventional antifungals) were prepared per the Clinical & Laboratory Standards Institute (CLSI) guidelines (CLSI, 2017; CLSI, 2008). Before testing, yeasts (C. albicans and S. cerevisiae) were sub-cultured in Sabouraud Dextrose Agar-Emmons Modification (SDAE) plates and grown for 24 h at 30 °C. Five independent colonies from 24-h-old plates were collected and diluted to ~10^4 colony forming units (CFU) per mL in sterile saline (CLSI, 2017). Molds (A. fumigatus and the dermatophytes T. rubrum and M. gypseum) were sub-cultured on SDAE medium and incubated for 7 days at 28 °C. Conidia were recovered by covering the plates with sterile distilled water and scraping the colonies. The suspensions were filtered (8-μm pore size) and diluted in saline to ~10^4 CFU mL^−1 (Santos and Hamdan, 2005).
(§2) After a 30-min incubation in the dark, cell suspensions were transferred to small, sterilized glass beakers, which were then placed in a water bath. Each sample was irradiated with 405-nm light at 292 mW cm^−2 for 5 min, corresponding to a light dose of 87.6 J cm^−2, determined using an S415C thermal power sensor (Thorlabs, Newton, MA, USA). During irradiation, the cell suspensions were agitated with a small metal stirrer. A thermocouple probe (model SC-TT-K-30-36-PP; Omega Engineering, Inc., Stanford, CT, USA) was used to monitor the temperature during irradiation. Irradiated cell suspensions were inoculated in 3-(N-morpholino) propanesulfonic acid (MOPS)-buffered Roswell Park Memorial Institute Medium (RPMI) 1640 (pH 7.0). Tubes were incubated at 30 ° C for 48 h (yeasts) and 28 ° C for 7 days (molds). The antifungal or MM concentration resulting in no visible growth was defined as the minimum inhibitory concentration (MIC) (CLSI, 2017; CLSI, 2008). Similarly prepared cell suspensions were used to determine the MIC of conventional antifungals.

[2] = tested on: C. albicans; assay: Time-kill assay, C. albicans; assay type: cell-based, Candida albicans
Experimental: (§3) For yeasts, five independent colonies were collected from 24-h SDAE plates, inoculated into yeast peptone with 2% dextrose (YPD), and grown for 24 h at 30 °C. Cells were then sub-cultured in fresh medium and grown for ~9 h. Afterward, the cells were centrifuged (5,000 ×g, 5 min), washed, and resuspended in phosphate-buffered saline (PBS) to ~10^6 CFU mL^−1. For A. fumigatus, conidia suspensions (~10^4 CFU mL^−1) were prepared in PBS as previously described.
(§4) Amphotericin B (AMB, 4×MIC) controls were prepared likewise, but light was omitted. Aliquots were collected in 1-min increments for up to 10 min, serially diluted in PBS, and plated on SDAE medium. Plates were incubated at 30 ° C for 48 h with confirmation after 72 h (yeasts) or at 28 ° C for 7 days with confirmation after 14 days (A. fumigatus), after which the CFU number was determined. The results were expressed as the logarithm of base 10 of the ratio between the CFU at each time point and the CFU at time 0. The detection limit of the method was ~1 log10 CFU mL^−1.

[3] = tested on: S. cerevisiae; assay: Time-kill assay, S. cerevisiae; assay type: cell-based, Saccharomyces cerevisiae; settings: 2×MIC, 405-nm light at 292 mW cm^−2
Experimental: as §3, §4

[4] = tested on: A. fumigatus; assay: Time-kill assay, A. fumigatus; assay type: cell-based, Aspergillus fumigatus; settings: 2×MIC, 405-nm light at 292 mW cm^−2
Experimental: as §3, §4

[5] = tested on: C. albicans; assay: Development of resistance / cross-resistance in C. albicans (serial passage, single-step); assay type: cell-based; settings: Candida albicans, read-out: MIC of MM in antifungal-resistant C. albicans
Experimental: FIG. 3: Evaluation of the development of resistance to MMs in C. albicans. For the stepwise resistance assessment by serial passage (left), C. albicans cell suspensions were treated with increasing concentrations (0.3125-160 μM) of different MMs (8 mM stock in DMSO) and then irradiated with […] light (87.6 J cm^−2). The irradiated cell suspensions were then inoculated in MOPS-buffered RPMI 1640 (pH 7.0, Sigma, MO, USA), and the tubes were incubated at 30 ° C for 48 h. […] Cells able to grow at 0.5×MIC of each MM were collected by centrifugation (5,000×g, 5 min), resuspended and re-challenged with a range of MM concentrations and irradiated with 405 nm light (87.6 J cm^−2). The procedure was repeated for a total of 20 consecutive cycles. […] Irradiated cells were then inoculated in YPD and incubated at 30 °C. However, MM-resistant colonies could not be recovered even after 14 days of incubation. Created with Biorender.com.
A modified version of the broth microdilution serial passage method was used to assess the development of resistance to visible-light-activated MMs in C. albicans (Kapoor et al., 2019). C. albicans cell suspensions were prepared and irradiated as previously described for the determination of MM MIC. Cells were then inoculated into buffered RPMI 1640 and incubated at 30 ° C for 48 h. Cells able to grow at 0.5×MIC of MM were centrifuged (5,000×g, 5 min), resuspended, rechallenged with different MM concentrations, and irradiated with 405-nm light (87.6 J cm^−2). The procedure was repeated for 20 consecutive cycles. The antifungals AMB, CAS, and FLC were processed similarly, except that light was omitted, and used as controls.

[6] = tested on: superoxide dismutase; assay: Superoxide dismutase (SOD) activity; assay type: cell-based, Candida albicans; settings: 0.5×MIC, p<0.05
Experimental: (§5) Superoxide dismutase (SOD) activity was determined using a Superoxide Dismutase Assay Kit (Caymanchem, MI, USA) per the distributor's instructions. Lipid peroxidation was determined using a TBARS assay kit (TCA method) (Caymanchem, MI, USA) per the distributor's instructions. SOD activity and MDA levels were normalized by protein content determined by the Pierce assay (Pierce™ BCA Protein Assay Kit, Thermo Fisher Scientific, MA, USA).

[7] = tested on: C. albicans; assay: Lipid peroxidation (TBARS, MDA); assay type: cell-based, Candida albicans; settings: 2×MIC
Experimental: as §5

[8] = Estimated rotation rate after light activation; settings: based on known motors with similar core skeletons
[9] = tested on: S. cerevisiae; assay: MIC, MMs and antifungals, S. cerevisiae; assay type: cell-based, Saccharomyces cerevisiae (ATCC 13007); settings: broth microdilution
Experimental: as §1, §2

[10] = tested on: A. fumigatus; assay: MIC, MMs and antifungals, A. fumigatus; assay type: cell-based, Aspergillus fumigatus (ATCC 1022); settings: A. fumigatus, broth microdilution
Experimental: as §1
After a 30-min incubation in the dark, cell suspensions were transferred to small, sterilized glass beakers, which were then placed in a water bath. Each sample was irradiated with 405-nm light at 292 mW cm^−2 for 5 min, corresponding to a light dose of 87.6 J cm^−2, determined using an S415C thermal power sensor (Thorlabs, Newton, MA, USA). During irradiation, the cell suspensions were agitated with a small metal stirrer. […]

[11] = tested on: mature C. albicans biofilms; assay: Biofilm viability (XTT assay); assay type: cell-based, Candida albicans; settings: 2×, 4×MIC, vs DMSO, MMs with 87.6 J cm^−2 405-nm light
Experimental: The antibiofilm activity of MMs was investigated using 96-well microtiter plates with flat-bottom wells as a closed static biofilm reactor. This setup is reliable, inexpensive, easy to use and obtain, and requires no additional equipment (Pierce et al., 2010). Two parameters were used to evaluate antibiofilm activity: biofilm biomass and biofilm viability. Biofilm biomass was determined using the crystal violet method (Martins et al, 2010), a simple, inexpensive, and readily accessible method for determining biofilm biomass. However, because crystal violet binds both live and dead cells as well as extracellular polymeric substances, it cannot be used alone to reliably assess antibiofilm activity. To overcome this limitation, the XTT assay was used to evaluate biofilm viability (Nett et al., 2011). […] The resulting formazan can be easily detected by measuring the absorbance at 490 nm, which is proportional to the number of living cells, providing a reliable quantitative measurement of metabolically active cells in biofilms (Taff et al., 2012). […]
Biofilm viability was determined using an XTT cell viability assay kit (Biotium, Hayward, CA, USA) per the manufacturer's instructions. […] Normalized absorbance values were obtained by subtracting the background from the signal.

[12] = tested on: mature C. albicans biofilms; assay: Biofilm biomass (crystal violet); assay type: cell-based, Candida albicans; settings: 2×, 4×MIC, vs DMSO, MMs with 87.6 J cm^−2 405-nm light
Experimental: The antibiofilm activity of MMs was investigated using 96-well microtiter plates with flat-bottom wells as a closed static biofilm reactor. This setup is reliable, inexpensive, easy to use and obtain, and requires no additional equipment (Pierce et al., 2010). Two parameters were used to evaluate antibiofilm activity: biofilm biomass and biofilm viability. Biofilm biomass was determined using the crystal violet method (Martins et al, 2010), a simple, inexpensive, and readily accessible method for determining biofilm biomass. However, because crystal violet binds both live and dead cells as well as extracellular polymeric substances, it cannot be used alone to reliably assess antibiofilm activity. To overcome this limitation, the XTT assay was used to evaluate biofilm viability (Nett et al., 2011). This assay is based on the reduction of the tetrazolium salt XTT to formazan by dehydrogenases in the mitochondrial electron transport chain of living cells. The resulting formazan can be easily detected by measuring the absorbance at 490 nm, which is proportional to the number of living cells, providing a reliable quantitative measurement of metabolically active cells in biofilms (Taff et al., 2012). […]
Biofilm biomass was determined by the crystal violet method, as previously described (Martins et al., 2010). […]

[13] = tested on: C. albicans plasma membrane; assay: Plasma membrane fluidity, DPH fluorescence; assay type: cell-based, Candida albicans
Experimental: The effects of MMs on C. albicans membrane dynamics were evaluated using DPH fluorescence (Kim et al., 2009). […] AMB-treated cells were used as controls. Samples were fixed with 0.37% formaldehyde and labeled with 0.6 mM DPH, as previously described (Kim et al., 2009). […] DPH fluorescence of untreated samples minus background was defined as 100% and used to calculate changes in treated samples.

[14] = tested on: C. albicans; assay: Influence of BAPTA-AM on MM-induced killing and intracellular calcium; assay type: cell-based, Candida albicans; settings: MM 1 2×MIC
Experimental: C. albicans cells were grown as described above and resuspended in HHBS (~10^6 CFU mL^−1). The cation chelator 1,2-bis(2-aminophenoxy) ethane-N,N,N′,N′-tetraacetic acid acetoxymethyl ester (BAPTA-AM) was then added (0.25-1 mM, final concentration) (Li et al., 2020). Unamended cells were used as controls. After a 30-min dark incubation at 30 ° C, the cells were centrifuged (5,000×g, 5 min), washed, and resuspended in HHBS. […] After 30 min, the cells were irradiated and processed as described for the time-kill experiments.

Compound: C[C@@H]1Cc2ccc3ccccc3c2/C1=C1\c2ccccc2Sc2cc(NCCN3CCNCC3)ccc21 (mixture of isomers) [MM 7, 9-(2-methyl-2,3-dihydro-1H-cyclopenta[a]naphthalen-1-ylidene)-N-(2-(piperazin-1-yl)ethyl)-9H-thioxanthen-3-amine]
- MIC ([1]; Candida albicans, read-out: MIC of MM): ≤ 5 µM
- time to reduce cell numbers to limit of detection ([2]; C. albicans, 2×MIC, 405-nm light at 292 mW cm^−2): 9 min
- time to population eradication [3]: 5 min
- time to reduce cell numbers to limit of detection [4]: 9 min
- MIC [5]: 5 µM
- superoxide dismutase activity [6]: increased superoxide dismutase activity
- lipid peroxidation product levels [7]: increased levels of the lipid peroxidation product malonaldehyde
- estimated rotation rate after light activation [8]: 3 MHz

Compound: C[C@@H]1[C@H](O)[C@@H](C)/C=C/C=C/C=C/C=C/C=C/C=C/C=C/[C@H](O[C@@H]2O[C@H](C)[C@@H](O)[C@H](N)[C@@H]2O)C[C@@H]2O[C@](O)(C[C@@H](O)C[C@@H](O)[C@H](O)CC[C@@H](O)C[C@@H](O)CC(=O)O[C@H]1C)C[C@H](O)[C@H]2C(=O)O [Amphotericin B (AMB), Amphotericin B]
- MIC of antifungal agent ([1]; C. albicans, broth microdilution): 1 mg/L
- MIC of antifungal agent [9]: 0.5 mg/L
- MIC of antifungal agent [10]: 2 mg/L
- effect on fungal cell number ([2]; time-kill, FIG. 1D / FIG. 2, AMB at 4×MIC): non-significant reduction in cell numbers
- reduction of biofilm viability [11]: 20%
- reduction of biofilm biomass [12]: 6%
- DPH fluorescence [13]: reduces DPH fluorescence

Compound: CC(=O)OCOC(=O)CN(CC(=O)OCOC(C)=O)c1ccccc1OCCOc1ccccc1N(CC(=O)OCOC(C)=O)CC(=O)OCOC(C)=O [BAPTA-AM, 1,2-bis(2-aminophenoxy) ethane-N,N,N′,N′-tetraacetic acid acetoxymethyl ester]
- effect of calcium chelator on MM-induced cell death [14]: Mitigation of MM-induced cell death
